Source: ChEMBL document CHEMBL1137449, “A refined agonist pharmacophore for protease activated receptor 2” (Bioorg Med Chem Lett, 2007)
Numbered stars: 1 amine (or outer) side, 2 acyl side, 3 side chain; on linkers, the order of the positions; unused ones are H or OH. Square brackets hold non-standard residues; d marks the D form. Peptide text beside a SMILES is read from it. * marks the point of attachment. Tyr(3,5-(NO2)2) = N[C@@H](Cc1cc([N+](=O)[O-])c(O)c([N+](=O)[O-])c1)C(=O)O; X1 = CC[C@H](C)[C@H](N)C(=O)NC(=O)[C@H](Cc1ccc([N+](=O)[O-])cc1)N*; Tyr(3-NO2) = N[C@@H](Cc1ccc(O)c([N+](=O)[O-])c1)C(=O)O; X2 = CCOP(=O)(Cc1ccc(C[C@H](N[*:1])C(=O)[*:2])cc1)OCC; Phe(4-NO2) = N[C@@H](Cc1ccc([N+](=O)[O-])cc1)C(=O)O; Phe(4-N3) = [N-]=[N+]=Nc1ccc(C[C@H](N)C(=O)O)cc1; Phe(3,4-(OMe)2) = COc1ccc(C[C@H](N)C(=O)O)cc1OC; Phe(3,4-Cl2) = N[C@@H](Cc1ccc(Cl)c(Cl)c1)C(=O)O; Phe(4-COOH) = N[C@@H](Cc1ccc(C(=O)O)cc1)C(=O)O; Phe(4-tBu) = CC(C)(C)c1ccc(C[C@H](N)C(=O)O)cc1; Phe(3-CN) = N#Cc1cccc(C[C@H](N)C(=O)O)c1; Phe(3-OMe) = COc1cccc(C[C@H](N)C(=O)O)c1; Phe(4-CN) = N#Cc1ccc(C[C@H](N)C(=O)O)cc1; Phe(4-Cl) = N[C@@H](Cc1ccc(Cl)cc1)C(=O)O; Phe(4-F) = N[C@@H](Cc1ccc(F)cc1)C(=O)O; Phe(4-I) = N[C@@H](Cc1ccc(I)cc1)C(=O)O; 1Nal = N[C@@H](Cc1cccc2ccccc12)C(=O)O; Bta = N[C@@H](Cc1csc2ccccc12)C(=O)O; Oxazole4CO(2-Me) = Cc1nc(C(=O)*)co1; hTyr = N[C@@H](CCc1ccc(O)cc1)C(=O)O; hPhe = N[C@@H](CCc1ccccc1)C(=O)O; 3Pal = N[C@@H](Cc1cccnc1)C(=O)O; 4Pal = N[C@@H](Cc1ccncc1)C(=O)O; Cha = N[C@@H](CC1CCCCC1)C(=O)O; Nle = CCCC[C@H](N)C(=O)O; 2Furoyl = O=C(c1ccco1)*

Biological target: T1, Proteinase-activated receptor 2 (Homo sapiens, UniProt P55085)
T1 sequence (P55085 whole entry): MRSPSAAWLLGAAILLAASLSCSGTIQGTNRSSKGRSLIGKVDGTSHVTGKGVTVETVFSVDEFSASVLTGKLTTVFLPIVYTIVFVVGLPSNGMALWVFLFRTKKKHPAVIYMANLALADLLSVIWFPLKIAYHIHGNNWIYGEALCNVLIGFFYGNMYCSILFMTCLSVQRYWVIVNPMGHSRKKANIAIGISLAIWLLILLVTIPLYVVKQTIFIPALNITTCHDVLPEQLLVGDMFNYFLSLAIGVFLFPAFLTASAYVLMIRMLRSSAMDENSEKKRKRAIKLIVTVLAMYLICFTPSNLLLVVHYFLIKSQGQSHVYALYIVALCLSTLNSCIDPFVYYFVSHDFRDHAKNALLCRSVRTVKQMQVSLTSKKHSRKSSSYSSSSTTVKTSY
Assay: Agonist activity at PAR2 expressed in human HT29 cells assessed as intracellular calcium release
Type: functional, cell-based, HT-29

SMILES	EC50
CC[C@H](C)[C@H](NC(=O)[C@H](CCc1ccc(O)cc1)NC(=O)[C@H](CCCNC(=N)N)NC(=O)CNC(=O)[C@@H](NC(=O)[C@H](CC(C)C)NC(=O)[C@@H](N)CO)[C@@H](C)CC)C(N)=O (H-SLIGR[hTyr]I-NH2)	3 µM
CC[C@H](C)[C@H](NC(=O)[C@H](Cc1cccnc1)NC(=O)[C@H](CCCNC(=N)N)NC(=O)CNC(=O)[C@@H](NC(=O)[C@H](CC(C)C)NC(=O)[C@@H](N)CO)[C@@H](C)CC)C(N)=O (H-SLIGR[3Pal]I-NH2)	1.1 µM
CC[C@H](C)[C@H](NC(=O)[C@H](CC(C)C)NC(=O)c1ccco1)C(=O)NCC(=O)N[C@@H](CCCNC(=N)N)C(=O)N[C@@H](Cc1ccc([N+](=O)[O-])cc1)C(N)=O (2Furoyl-LIGR[Phe(4-NO2)]-NH2)	0.17 µM
CC[C@H](C)[C@H](NC(=O)[C@H](Cc1ccc(OC)c(OC)c1)NC(=O)[C@H](CCCNC(=N)N)NC(=O)CNC(=O)[C@@H](NC(=O)[C@H](CC(C)C)NC(=O)[C@@H](N)CO)[C@@H](C)CC)C(N)=O (H-SLIGR[Phe(3,4-(OMe)2)]I-NH2)	1.3 µM
CC[C@H](C)[C@H](NC(=O)[C@H](Cc1ccccc1)NC(=O)[C@H](CCCNC(=N)N)NC(=O)CNC(=O)[C@@H](NC(=O)[C@H](CC(C)C)NC(=O)[C@@H](N)CO)[C@@H](C)CC)C(N)=O (H-SLIGRFI-NH2)	1 µM
CC[C@H](C)[C@H](NC(=O)[C@H](CC(C)C)NC(=O)[C@@H](N)CO)C(=O)NCC(=O)N[C@@H](CCCNC(=N)N)C(=O)N[C@@H](CC(C)C)C(=O)N[C@@H](Cc1cccc2ccccc12)C(N)=O (H-SLIGRL[1Nal]-NH2)	1.1 µM
CC[C@H](C)[C@H](NC(=O)[C@H](CC(C)C)NC(=O)[C@@H](N)CO)C(=O)NCC(=O)N[C@@H](CCCNC(=N)N)C(=O)N[C@@H](CC(C)C)C(=O)N[C@@H](Cc1ccc(O)cc1)C(N)=O (H-SLIGRLY-NH2)	1.2 µM
CC[C@H](C)[C@H](NC(=O)[C@H](Cc1ccc(Cl)c(Cl)c1)NC(=O)[C@H](CCCN=C(N)N)NC(=O)CNC(=O)[C@@H](NC(=O)[C@H](CC(C)C)NC(=O)[C@@H](N)CO)[C@@H](C)CC)C(N)=O (H-SLIGR[Phe(3,4-Cl2)]I-NH2)	0.3 µM
CC[C@H](C)[C@H](NC(=O)[C@H](CC(C)C)NC(=O)[C@@H](N)CO)C(=O)NCC(=O)N[C@@H](CCCNC(=N)N)C(=O)N[C@@H](CC(C)C)C(=O)N[C@@H](CCc1ccccc1)C(N)=O (H-SLIGRL[hPhe]-NH2)	1 µM
CC[C@H](C)[C@H](NC(=O)[C@H](CC(C)C)NC(=O)[C@@H](N)CO)C(=O)NCC(=O)N[C@@H](CCCNC(=N)N)C(=O)N[C@@H](CC(C)C)C(=O)N[C@@H](Cc1ccc(F)cc1)C(N)=O (H-SLIGRL[Phe(4-F)]-NH2)	2 µM
CC[C@H](C)[C@H](NC(=O)[C@H](CC(C)C)NC(=O)[C@@H](N)CO)C(=O)NCC(=O)N[C@@H](CCCNC(=N)N)C(=O)N[C@@H](Cc1ccc([N+](=O)[O-])cc1)C(N)=O (H-SLIGR[Phe(4-NO2)]-NH2)	0.6 µM
CC[C@H](C)[C@H](NC(=O)[C@H](Cc1ccc(C(C)(C)C)cc1)NC(=O)[C@H](CCCNC(=N)N)NC(=O)CNC(=O)[C@@H](NC(=O)[C@H](CC(C)C)NC(=O)[C@@H](N)CO)[C@@H](C)CC)C(N)=O (H-SLIGR[Phe(4-tBu)]I-NH2)	0.6 µM
CC[C@H](C)[C@H](NC(=O)[C@H](Cc1ccc(Cl)cc1)NC(=O)[C@H](CCCNC(=N)N)NC(=O)CNC(=O)[C@@H](NC(=O)[C@H](CC(C)C)NC(=O)[C@@H](N)CO)[C@@H](C)CC)C(N)=O (H-SLIGR[Phe(4-Cl)]I-NH2)	0.5 µM
CC[C@H](C)[C@H](NC(=O)[C@H](CC(C)C)NC(=O)[C@@H](N)CO)C(=O)NCC(=O)N[C@@H](CCCNC(=N)N)C(=O)N[C@@H](CC(C)C)C(=O)N[C@@H](CCc1ccc(O)cc1)C(N)=O (H-SLIGRL[hTyr]-NH2)	0.6 µM
CC[C@H](C)[C@H](NC(=O)[C@H](CC(C)C)NC(=O)c1coc(C)n1)C(=O)NCC(=O)N[C@@H](CCCNC(=N)N)C(=O)N[C@@H](Cc1ccc(I)cc1)C(N)=O ({Oxazole4CO(2-Me)}-LIGR[Phe(4-I)]-NH2)	0.32 µM
CC[C@H](C)[C@H](NC(=O)[C@H](Cc1ccc(C(=O)O)cc1)NC(=O)[C@H](CCCNC(=N)N)NC(=O)CNC(=O)[C@@H](NC(=O)[C@H](CC(C)C)NC(=O)[C@@H](N)CO)[C@@H](C)CC)C(N)=O (H-SLIGR[Phe(4-COOH)]I-NH2)	5 µM
CC[C@H](C)[C@H](NC(=O)[C@H](Cc1cccc(C#N)c1)NC(=O)[C@H](CCCNC(=N)N)NC(=O)CNC(=O)[C@@H](NC(=O)[C@H](CC(C)C)NC(=O)[C@@H](N)CO)[C@@H](C)CC)C(N)=O (H-SLIGR[Phe(3-CN)]I-NH2)	1.7 µM
CC[C@H](C)[C@H](NC(=O)[C@H](CC(C)C)NC(=O)[C@@H](N)CO)C(=O)NCC(=O)N[C@@H](CCCNC(=N)N)C(=O)N[C@@H](CC(C)C)C(N)=O (H-SLIGRL-NH2)	4.2 µM

SMILES	EC50
CC[C@H](C)[C@H](NC(=O)[C@H](CC(C)C)NC(=O)[C@H](CCCN=C(N)N)NC(=O)CNC(=O)[C@@H](NC(=O)[C@H](CC(C)C)NC(=O)[C@@H](N)CO)[C@@H](C)CC)C(N)=O (H-SLIGRLI-NH2)	0.7 µM
CC[C@H](C)[C@H](NC(=O)[C@H](Cc1ccc(C#N)cc1)NC(=O)[C@H](CCCNC(=N)N)NC(=O)CNC(=O)[C@@H](NC(=O)[C@H](CC(C)C)NC(=O)[C@@H](N)CO)[C@@H](C)CC)C(N)=O (H-SLIGR[Phe(4-CN)]I-NH2)	0.9 µM
CC[C@H](C)[C@H](NC(=O)[C@H](CCc1ccccc1)NC(=O)[C@H](CCCNC(=N)N)NC(=O)CNC(=O)[C@@H](NC(=O)[C@H](CC(C)C)NC(=O)[C@@H](N)CO)[C@@H](C)CC)C(N)=O (H-SLIGR[hPhe]I-NH2)	1.8 µM
CC[C@H](C)[C@H](N)C(=O)NC(=O)[C@H](Cc1ccc([N+](=O)[O-])cc1)NC(=O)[C@H](CCCNC(=N)N)NC(=O)CNC(=O)[C@@H](NC(=O)[C@H](CC(C)C)NC(=O)c1ccco1)[C@@H](C)CC (2Furoyl-LIGR-X1)	0.2 µM
CC[C@H](C)[C@H](NC(=O)[C@H](Cc1cc([N+](=O)[O-])c(O)c([N+](=O)[O-])c1)NC(=O)[C@H](CCCNC(=N)N)NC(=O)CNC(=O)[C@@H](NC(=O)[C@H](CC(C)C)NC(=O)[C@@H](N)CO)[C@@H](C)CC)C(N)=O (H-SLIGR[Tyr(3,5-(NO2)2)]I-NH2)	1.4 µM
CC[C@H](C)[C@H](NC(=O)[C@H](Cc1csc2ccccc12)NC(=O)[C@H](CCCNC(=N)N)NC(=O)CNC(=O)[C@@H](NC(=O)[C@H](CC(C)C)NC(=O)[C@@H](N)CO)[C@@H](C)CC)C(N)=O (H-SLIGR[Bta]I-NH2)	0.3 µM
CC[C@H](C)[C@H](NC(=O)[C@H](CC(C)C)NC(=O)[C@@H](N)CO)C(=O)NCC(=O)N[C@@H](CCCNC(=N)N)C(=O)N[C@@H](CC(C)C)C(=O)N[C@@H](CC(C)C)C(N)=O (H-SLIGRLL-NH2)	1.2 µM
CC[C@H](C)[C@H](NC(=O)[C@H](Cc1ccc(N=[N+]=[N-])cc1)NC(=O)[C@H](CCCNC(=N)N)NC(=O)CNC(=O)[C@@H](NC(=O)[C@H](CC(C)C)NC(=O)[C@@H](N)CO)[C@@H](C)CC)C(N)=O (H-SLIGR[Phe(4-N3)]I-NH2)	2.5 µM
CC[C@H](C)[C@H](NC(=O)[C@H](Cc1cccc(OC)c1)NC(=O)[C@H](CCCNC(=N)N)NC(=O)CNC(=O)[C@@H](NC(=O)[C@H](CC(C)C)NC(=O)[C@@H](N)CO)[C@@H](C)CC)C(N)=O (H-SLIGR[Phe(3-OMe)]I-NH2)	3.3 µM
CCOP(=O)(Cc1ccc(C[C@H](NC(=O)[C@H](CCCNC(=N)N)NC(=O)CNC(=O)[C@@H](NC(=O)[C@H](CC(C)C)NC(=O)[C@@H](N)CO)[C@@H](C)CC)C(=O)N[C@H](C(N)=O)[C@@H](C)CC)cc1)OCC (H-SLIGR[X2]I-NH2)	1.3 µM
CCCC[C@H](NC(=O)[C@H](CC(C)C)NC(=O)[C@H](CCCNC(=N)N)NC(=O)CNC(=O)[C@@H](NC(=O)[C@H](CC(C)C)NC(=O)[C@@H](N)CO)[C@@H](C)CC)C(N)=O (H-SLIGRL[Nle]-NH2)	1.2 µM
CC[C@H](C)[C@H](NC(=O)[C@H](Cc1ccc(I)cc1)NC(=O)[C@H](CCCNC(=N)N)NC(=O)CNC(=O)[C@@H](NC(=O)[C@H](CC(C)C)NC(=O)[C@@H](N)CO)[C@@H](C)CC)C(N)=O (H-SLIGR[Phe(4-I)]I-NH2)	0.6 µM
CC[C@H](C)[C@H](NC(=O)[C@H](Cc1ccc(O)c([N+](=O)[O-])c1)NC(=O)[C@H](CCCNC(=N)N)NC(=O)CNC(=O)[C@@H](NC(=O)[C@H](CC(C)C)NC(=O)[C@@H](N)CO)[C@@H](C)CC)C(N)=O (H-SLIGR[Tyr(3-NO2)]I-NH2)	1.4 µM
CC[C@H](C)[C@H](NC(=O)[C@H](Cc1ccncc1)NC(=O)[C@H](CCCNC(=N)N)NC(=O)CNC(=O)[C@@H](NC(=O)[C@H](CC(C)C)NC(=O)[C@@H](N)CO)[C@@H](C)CC)C(N)=O (H-SLIGR[4Pal]I-NH2)	1.9 µM
CC[C@H](C)[C@H](NC(=O)[C@H](CC(C)C)NC(=O)[C@@H](N)CO)C(=O)NCC(=O)N[C@@H](CCCNC(=N)N)C(=O)N[C@@H](CC(C)C)C(=O)N[C@@H](CC1CCCCC1)C(N)=O (H-SLIGRL[Cha]-NH2)	3.6 µM
CC[C@H](C)[C@H](NC(=O)[C@H](COc1ccc([N+](=O)[O-])cc1)NC(=O)[C@H](CCCNC(=N)N)NC(=O)CNC(=O)[C@@H](NC(=O)[C@H](CC(C)C)NC(=O)[C@@H](N)CO)[C@@H](C)CC)C(N)=O	2.8 µM
CC[C@H](C)[C@H](NC(=O)[C@H](Cc1ccc(O)cc1)NC(=O)[C@H](CCCN=C(N)N)NC(=O)CNC(=O)[C@@H](NC(=O)[C@H](CC(C)C)NC(=O)[C@@H](N)CO)[C@@H](C)CC)C(N)=O (H-SLIGRYI-NH2)	0.4 µM
